These results are taken from publication PMC9068721, “Evaluation of MxOy/fucoidan hybrid system and their application in lipase immobilization process” (Scientific Reports, 2022).

The test system of this experiment is T1, lipase from Aspergillus niger (LAN).
T1 construct: gene lipA; commercial Sigma-Aldrich lipase preparation from Aspergillus niger, free (not immobilized)
Kind of experiment: p-nitrophenol release at […] nm, Hanes-Woolf plot. Format: biochemical. Conditions: free enzyme, 30 °C, 2 min, 1000 rpm; substrate solution range printed as 0.005–1.5 M; apparent.

SMILES strings stand for the structures.

Consider `CCCCCCCCCCCCCCCC(=O)Oc1ccc([N+](=O)[O-])cc1` [p-nitrophenyl palmitate], for which the Km is 580 ± 20 µM.

As a reminder, the Km is the concentration of substrate that gives half-maximal velocity.
